For test [1], the target named is T1, human eosinophil [3H]-PGD2 binding site (Homo sapiens, UniProt Q9Y5Y4).
T1 construct: endogenous in cells; host or cells: isolated human eosinophils
T1 sequence (Q9Y5Y4 1-395): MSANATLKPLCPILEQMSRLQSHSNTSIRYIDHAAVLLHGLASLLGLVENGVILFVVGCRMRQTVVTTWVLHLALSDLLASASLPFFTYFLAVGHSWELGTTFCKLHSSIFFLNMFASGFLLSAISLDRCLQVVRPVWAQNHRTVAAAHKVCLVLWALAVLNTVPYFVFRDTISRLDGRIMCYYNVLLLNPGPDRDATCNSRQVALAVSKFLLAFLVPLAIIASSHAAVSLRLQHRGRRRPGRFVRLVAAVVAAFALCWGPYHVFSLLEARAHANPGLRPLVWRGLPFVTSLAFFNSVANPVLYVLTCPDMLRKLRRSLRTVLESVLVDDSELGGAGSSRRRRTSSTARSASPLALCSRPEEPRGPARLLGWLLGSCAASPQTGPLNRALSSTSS
The test is described as follows: [3H]PGD2 binding in isolated human eosinophils. The note with it: number in brackets not defined. An excerpt:
As is shown in FIG. 1B, the effects of the prostaglandins and analogs on human eosinophil [^3H]-PGD2 binding site and eosinophil functional responses have the same order of potency (i.e., PGD2>PGF2a>>BW245C).

Another test deals with guinea pig eyes. The following applies: topical, cited from earlier work; for microvascular leakage followed by conjunctival inflammation: 6-hour post challenge.
Test [2] has as its system isolated human eosinophils. The test is described as follows: Reactive oxygen species (ROS) release in isolated human eosinophils. The test is classed as cell-based. How it is done: Another secondary assay is the reactive oxygen species release assay. One measure of PGD2-induced activation of CRTH2 cells, such as eosinophils, is the intracellular release of reactive oxygen species. This can be tested in a reactive oxygen species release assay, or ROS, using lucigenin-dependent chemiluminescence to measure reactive oxygen species release. In this method, freshly isolated eosinophils are prepared, by standard methods, and resuspended at concentration 2-4×10^6 cells/ml in (RPMI; 10 mM HEPES; 1× Pen/Strep; 0.5% FBS) at room temperature. Immediately prior to use, 1 ml of cell suspension is added to 9 ml of buffer, prewarmed to 37° C. for 15 minutes, and added 0.5 ml of 200 mM Lucigenin.
Test compounds (made as 10,000× DMSO stocks) are diluted in buffer with DMSO (1.5 ul of DMSO/2.5 ml Buffer) and 25 μl/well added to white 96-well culture plate and placed in a 37° C. incubator. Isolated cells (held at room temperature) are diluted with room temperature buffer to 2-4×10^6 cells/ml, and incubated in a water bath at 37° C. for 15 minutes. At 15 minutes, 0.5 ml 200 mM lucigenin (bis-N-Methylacridinium Nitrate; Sigma, St. Louis, Mo.) is added to 10 ml of the cell suspension, mixed, and 100 μl/well is added to the prewarmed microtiter plate. The plate is returned to 37° C. for 5 minutes, at which time 25 μl of stimulus is added) The plate is read in the luminometer for 8 cycles. The luminescence of test compounds can be tested in the presence of PGD2, relative to a control sample containing PGD2 alone. A compound that interferes with the ability of PGD2 to result in intracellular reactive oxygen species release in CRTH2 cells, is a candidate for a CRTH2 antagonist.

The target in a further test is T2, CRTH2 (Homo sapiens, UniProt Q9Y5Y4).
T2 construct: prolactin (prolac) signal peptide (N); expressed in transfected cells; host or cells: 300-19 cells (transformed murine pre-B lymphocytes)
T2 sequence (Q9Y5Y4 1-395): T1 sequence (Q9Y5Y4 1-395)
The test can be described thus: Competition with 3H-PGD2 binding at the CRTH2 receptor (Examples 6-9). The note with it: control, cold PGD2, 8 trials. How it is done: To directly determine the binding affinity of CRTH2 for PGD2, the following binding assay was used. Transfected and parental 300-19 cells were washed twice at room temperature with assay buffer, and resuspended at a concentration of 2×10^7 cells/ml. Using a 96-well U-bottom polypropylene plate (Costar, Corning Inc., Acton, Mass.), the assay was set up as follows: 50 μl of vehicle (0.3% DMSO in assay buffer, total wells) or of […] cold PGD2 (NS wells); 50 μl cells (2×10^7 cells/ml for 10^6 cells per well); 50 μl 6 nM [3H]-PGD2. The plate was allowed to incubate for 20 min at RT before centrifugation (2800 rpm, Sorval RT6000, 5 min, 4° C.). The plate was harvested (Packard Unifilter plate GF/C, previously soaked in 3% PEI for at least 1 hr) with cold assay buffer using a Packard Filtermate Cell Harvester (6×150 μl buffer wash per well). The filterplate was dried overnight. After the addition of 50 μl scintillation fluid (Packard Microscint 0), the plate was counted in a Packard Topcount scintillation counter (1 min per well). […] The solutions of labeled PGD2 and unlabeled “cold” PGD2 were prepared as follows: 10 μl of [^3H]-PGD2 (Amersham lot # TRK734 162 Ci/mmol, 0.1 Ci/ml in methanol: water: acetonitrile (3:2:1), 617 nM) per ml assay buffer was used to prepare a solution of [^3H]-PGD2 at a concentration of 6 nM (50 μl/well for final conc. of 2 nM); cold PGD2 (Biomol #PG-005, lot # P4653) was dissolved in DMSO for a stock of 10 mM (stored at −20° C.). The 10 mM stock was diluted 3:1000 to obtain a final concentration of […] (50 μl/well for final conc. of […]). Assay buffer: Hank's balanced saline supplemented with HEPES and sodium bicarbonate: 100 ml/L of 10× Hank's Balanced saline (with Ca^+2, Mg^+2); 10 ml/L of 1M HEPES; 4.7 ml/L of 7.5% Sodium Bicarbonate.
In the assay, the capacity of each D-ring compound to compete with binding of ^3H-PGD2 was measured at both the CRTH2 and DP receptors, and an IC50 value (in μM) was determined. […] The binding assay procedure of Example 1 was used. Preferably, the ratio of IC50 at CRTH2 to IC50 at DP is less than about twenty, and more preferably is […].

For the next test, the target named is T3, DP receptor (Homo sapiens, UniProt Q13258).
T3 sequence (Q13258 1-359): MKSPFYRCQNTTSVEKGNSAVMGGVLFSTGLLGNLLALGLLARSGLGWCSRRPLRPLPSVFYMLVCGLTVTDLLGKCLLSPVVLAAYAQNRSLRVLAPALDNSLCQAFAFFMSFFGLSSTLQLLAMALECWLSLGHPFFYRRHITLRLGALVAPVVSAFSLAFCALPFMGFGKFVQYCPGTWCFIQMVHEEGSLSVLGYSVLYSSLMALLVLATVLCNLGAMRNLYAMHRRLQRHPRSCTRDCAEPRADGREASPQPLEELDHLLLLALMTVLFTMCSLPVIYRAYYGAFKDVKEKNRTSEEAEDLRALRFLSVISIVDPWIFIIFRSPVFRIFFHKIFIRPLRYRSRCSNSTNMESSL
The test is described as follows: Competition with 3H-PGD2 binding at the DP receptor (Examples 6-9). The note with it: control, cold PGD2, 7 trials. How it is done: To directly determine the binding affinity of CRTH2 for PGD2, the following binding assay was used. Transfected and parental 300-19 cells were washed twice at room temperature with assay buffer, and resuspended at a concentration of 2×10^7 cells/ml. Using a 96-well U-bottom polypropylene plate (Costar, Corning Inc., Acton, Mass.), the assay was set up as follows: 50 μl of vehicle (0.3% DMSO in assay buffer, total wells) or of […] cold PGD2 (NS wells); 50 μl cells (2×10^7 cells/ml for 10^6 cells per well); 50 μl 6 nM [3H]-PGD2. The plate was allowed to incubate for 20 min at RT before centrifugation (2800 rpm, Sorval RT6000, 5 min, 4° C.). The plate was harvested (Packard Unifilter plate GF/C, previously soaked in 3% PEI for at least 1 hr) with cold assay buffer using a Packard Filtermate Cell Harvester (6×150 μl buffer wash per well). The filterplate was dried overnight. After the addition of 50 μl scintillation fluid (Packard Microscint 0), the plate was counted in a Packard Topcount scintillation counter (1 min per well). […]
In the assay, the capacity of each D-ring compound to compete with binding of ^3H-PGD2 was measured at both the CRTH2 and DP receptors, and an IC50 value (in μM) was determined. […]

For orientation: IC50 means the concentration that inhibits the measured activity by half. Read a high IC50 as weaker potency. Broadly, the EC50 is the midpoint of the concentration-response curve. As for `O=C(O)CCCCCCC1C(=O)NC(=O)N1CCC(O)C1CCCCC1` (centres unmarked) [BW-245C], the IC50 in test [1] is > 100000 nM. Also, in the test with guinea pig eyes, the “microvascular leakage followed by conjunctival inflammation” value is reported as “BW-245C-insensitive” and the ocular hypotension result is listed as “mimicked by BW-245C”. The EC50 in test [2] was > 1000 nM.
As to `CCCCC[C@H](O)/C=C/[C@H]1C(=O)C[C@H](O)[C@@H]1C/C=C\CCCC(=O)O` [PGD2, prostaglandin D2], the half-maximal inhibitory concentration (IC50) is 10.7 nM at CRTH2, 25 nM in test [1] and 23.4 nM at DP receptor. Also, the “microvascular leakage followed by conjunctival inflammation” value in the test with guinea pig eyes is reported as “microvascular leakage followed by conjunctival inflammation”. For the same molecule, the ocular hypotension result in the test on guinea pig eyes is “elicits ocular hypotension”. This molecule also displayed an EC50 in test [2] of 2 nM.
`CCCCC[C@H](O)/C=C/[C@H]1[C@H](O)CC(=O)[C@@H]1C/C=C\CCCC(=O)O` [PGE2] came in with an IC50 in test [1] of 3300 nM. In test [2], the concentration for a half-maximal effect (EC50) was > 100 nM.
On to `CCCCC[C@H](O)/C=C/[C@@H]1[C@@H](C/C=C\CCCC(=O)O)[C@@H](O)C[C@H]1O` [PGF2α], for which the 50% inhibitory concentration (IC50) in test [1] is 1500 nM. Besides, the concentration for a half-maximal effect (EC50) in test [2] is > 1000 nM.
